Patent US12038432B2, “Organoids related to immunotherapy and methods of preparing and using the same” (Wake Forest University Health Sciences, priority 2018, dated 2024)
Entries after “also recorded” stand apart in the source; their conditions may differ.

Assays:
[1] = tested on: PTOs derived from a melanoma patient (Non-Responder); experiment: LIVE/DEAD imaging of tumor organoids derived from a non-responder melanoma patient; type: cell-based, human; details: FIG. 1C
Protocol: (§1) Drug screen output metrics: Drugs will be administered for 48 hours, after which efficacy will be determined as follows; specifically, viability of cells will be assessed by (LIVE/DEAD), number of viable cells alone, number of viable cells versus dead cells, mitochondrial metabolism (MTS), LDH quantification (positive in tumor cells), and IHC (colocalization of fluorescently labeled immune cells with apoptotic, proliferative, and tumor cell markers).

[2] = tested on: colorectal tumor-node organoids; experiment: Mitochondrial metabolism of colorectal patient tumor organoids with or without matched lymph node immune cells; type: cell-based, human; details: integrated colorectal tumor-node organoids; seen only when immune cells are present; FIG. 1A
Protocol: as §1, with “markers). […] This was not expected given the BRAF wild status of the patient. […] The alternative therapy was identified by PTO screen more than 4 weeks prior to genomic sequencing that verified a MEK mutation, thus qualifying the patient for trametinib.” for “markers).”

melanoma = experiment: Clinical response of melanoma patients to treatment; type: in vivo, human; details: stage III and IV melanoma patients of Example 7
[3] = tested on: 3D patient-specific mixed melanoma/node organoids; experiment: Personalized immunotherapy screening on mixed melanoma/node organoids (live/dead staining and metabolism assays); type: cell-based, human; details: fourth patient's mixed melanoma/node organoids; 72 hours
Excerpt: Methods: Surgically obtained matched melanoma and lymph node biospecimens from the same patient were transferred to the laboratory, washed with saline, antibiotic, and red blood cell lysis buffer. Biospecimens were dissociated, and incorporated into an ECM-based hydrogel system and biofabricated into 3D patient-specific mixed melanoma/node organoids. Cells were not sorted for tumor, as to preserve tumor heterogeneity, including stroma and immune cell components. […] Quantification of live/dead staining and metabolism assays, recorded relative drug efficacy in killing melanoma cells for a particular patient. Light microscopy, IHC and next generation sequencing (NGS) were used to compare tumor melanoma cells with organoid melanoma cells.

[4] = tested on: low-grade appendiceal tumor-node organoids; experiment: LIVE/DEAD imaging of appendiceal tumor organoids with and without node cells; type: cell-based, human; details: FIG. 1B; for LIVE/DEAD imaging, drug effectiveness: appendiceal tumor organoids with and without node cells; for cell death (LIVE/DEAD staining): low-grade appendiceal tumor-node organoids
Protocol: as §1

melanoma tumor organoid = experiment: Drug screen, cell viability of melanoma tumor organoid with or without lymph node cells (FIG. 5); type: cell-based, human; details: decrease observed only when the organoid included both tumor cells and lymph node cells
Protocol: Organoid-device integration: HA and gelatin/collagen components are mixed with cells, as well as a crosslinker and photoinitiator for photopolymerization in situ. Cells are added to the gel precursor preferably at a density of 20 million cells/mL or higher, after which the cell-gel mixture introduced to the microfluidic chambers sequentially and patterning is accomplished using a positive-tone photomask to define shape and location of constructs (FIG. 3B). For the proposed studies, each device will contain series of 2 chamber circuits in which one chamber will be formed a tumor organoid and in the other will be formed a lymph node organoid. Alternatively, both organoids can exist separately, but in the same chamber (FIG. 2). In another form factor, tumor cells and immune cells can be photopatterned into the device as adjacent regions, in which for the immune cells to successfully target the tumor cells, they are forced to recognize tumor cell antigens, activate, and migrate to the tumor region. (FIGS. 4A-4C). […]
Drug screen output metrics: Drug efficacy will be determined by: viability of cells (LIVE/DEAD), number of viable cells alone, number of viable cells versus dead cells, mitochondrial metabolism (MTS), LDH quantification (positive in tumor cells), and IHC (Annexin V vs. KI67-apoptotic vs. proliferative markers).

PTOs = experiment: Exposure of patient tumor organoids (PTOs) to immune checkpoint inhibitors, tolerance; type: cell-based; details: ~100 nM concentrations; unless immune cells are activated
Excerpt: Potential immune checkpoint inhibitor treatment. […] Concentrations of these two widely-used PD-1 inhibitors and one widely-used CTLA-4 inhibitor will be derived from clinical treatment guidelines and scaled to the volume of the PTO.

## dabrafenib and trametinib [dabrafenic/trametinib]
[1]
  organoid response (LIVE/DEAD staining): increased DEAD staining
[1]; listed as dabrafenib and trametinib
  organoid response (LIVE/DEAD staining): did respond

## ipilimumab [ipilumimab]
[1]
  organoid response (LIVE/DEAD staining): did not respond

## nivolumab
[2]
  mitochondrial metabolism: an increase in mitochondrial metabolism; also recorded: Increased metabolism
melanoma
  patient clinical response: clinically progressed
[3]
  melanoma killing: 50%
[4]
  LIVE/DEAD imaging, drug effectiveness: effective only when immune cell (lymph) population was incorporated
  cell death (LIVE/DEAD staining): increases in cell death
Melanoma tumor organoid
  organoid viability, measured by overall metabolic activity: significant decrease
PTOs
  effect on the PTOs: no negative effect

## pembrolizumab
[1]
  organoid response (LIVE/DEAD staining): did not respond
[4]
  LIVE/DEAD imaging, drug effectiveness: effective only when immune cell (lymph) population was incorporated
  cell death (LIVE/DEAD staining): increases in cell death
Melanoma tumor organoid
  organoid viability, measured by overall metabolic activity: significant decrease
PTOs
  effect on the PTOs: no negative effect
